For one experiment, the target named is Carbonic anhydrase 1 (Homo sapiens, UniProt P00915).
A further experiment concerns the target T1, Carbonic anhydrase 4 (Bos taurus, UniProt Q95323).
T1 sequence (Q95323 whole entry): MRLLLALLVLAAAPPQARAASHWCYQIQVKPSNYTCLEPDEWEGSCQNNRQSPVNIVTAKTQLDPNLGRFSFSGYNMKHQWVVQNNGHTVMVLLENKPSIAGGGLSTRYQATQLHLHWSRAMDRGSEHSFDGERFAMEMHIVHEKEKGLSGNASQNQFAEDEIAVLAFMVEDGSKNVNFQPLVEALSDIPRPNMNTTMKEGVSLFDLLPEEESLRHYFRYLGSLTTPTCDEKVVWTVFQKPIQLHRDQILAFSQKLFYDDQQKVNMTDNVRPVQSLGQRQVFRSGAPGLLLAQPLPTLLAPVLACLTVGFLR

Carbonic anhydrase 1, sequence (P00915 whole entry): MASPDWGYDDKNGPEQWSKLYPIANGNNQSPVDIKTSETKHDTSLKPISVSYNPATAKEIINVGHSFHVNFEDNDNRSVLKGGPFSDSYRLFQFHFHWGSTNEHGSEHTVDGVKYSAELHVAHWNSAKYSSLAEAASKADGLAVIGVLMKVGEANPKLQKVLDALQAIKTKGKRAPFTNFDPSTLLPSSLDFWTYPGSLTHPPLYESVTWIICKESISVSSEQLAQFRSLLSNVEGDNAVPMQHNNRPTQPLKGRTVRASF

As for `CCN(C(=O)CCCN)C1CC(C)S(=O)(=O)c2sc(S(N)(=O)=O)cc21` (stereo not drawn), the Ki (as a rule, the dissociation constant of the complex between target and ligand, obtained from inhibition or displacement) is 56 nM on Carbonic anhydrase 1 and 32 nM on Carbonic anhydrase 4.

As for `NCCCC(=O)Nc1cccc(S(N)(=O)=O)c1`, the figures for the Ki at Carbonic anhydrase 1 and at Carbonic anhydrase 4 were 17200 nM and 215 nM, respectively.

With `NCCCC(=O)Oc1ccc2nc(S(N)(=O)=O)sc2c1`, the Ki on Carbonic anhydrase 1 was 15 nM; at Carbonic anhydrase 4 it was 12 nM.

Regarding `NCCCC(=O)Nc1ccc2nc(S(N)(=O)=O)sc2c1`, the Ki on Carbonic anhydrase 1 is 14 nM; at Carbonic anhydrase 4, 12 nM.

In the case of `NCCCC(=O)Nc1ccc(S(N)(=O)=O)cc1F`, the inhibition constant Ki on Carbonic anhydrase 1 is 530 nM; on Carbonic anhydrase 4, 38 nM.

Take `NCCCC(=O)Nc1nnc(S(N)(=O)=O)s1`: the Ki at Carbonic anhydrase 1 was 300 nM; on Carbonic anhydrase 4 it was 43 nM.

For the molecule `NCCCC(=O)Nc1cc(Cl)c(S(N)(=O)=O)cc1S(N)(=O)=O`, the Ki was 350 nM on Carbonic anhydrase 1 and 50 nM at Carbonic anhydrase 4.

Take `NCCCC(=O)Nc1ccc(S(=O)(=O)Nc2ccc(S(N)(=O)=O)cc2)cc1`: the Ki on Carbonic anhydrase 1 is 63 nM; on Carbonic anhydrase 4, 75 nM.

In the case of `NCCCC(=O)OCCOc1ccc2nc(S(N)(=O)=O)sc2c1`, the Ki on Carbonic anhydrase 1 is 10 nM; on Carbonic anhydrase 4, 11 nM.

Turning to `NCCCC(=O)Nc1ccccc1S(N)(=O)=O`, the figures for the Ki on Carbonic anhydrase 1 and at Carbonic anhydrase 4 were 20000 nM and 243 nM, respectively.

For `NCCCC(=O)NCCc1ccc(S(N)(=O)=O)cc1`, on Carbonic anhydrase 4, the affinity, expressed as Ki, was 62 nM.

Consider `NCCCC(=O)NNc1ccc(S(N)(=O)=O)cc1`, for which the Ki at Carbonic anhydrase 1 was 22500 nM; on Carbonic anhydrase 4, 305 nM.

For `Cn1nc(S(N)(=O)=O)s/c1=N/S(=O)(=O)c1ccc(N)cc1`, the Ki is 9 nM on Carbonic anhydrase 1 and 8 nM on Carbonic anhydrase 4.

On to `NCCCC(=O)Nc1ccc(S(N)(=O)=O)cc1I`, for which the Ki at Carbonic anhydrase 1 is 500 nM; on Carbonic anhydrase 4, 56 nM.

Take `NCCCC(=O)Nc1c(S(N)(=O)=O)cc(S(N)(=O)=O)c(Cl)c1Cl`: the Ki at Carbonic anhydrase 1 was 450 nM; on Carbonic anhydrase 4 it was 50 nM.

`NCCCC(=O)Nc1ccc(S(N)(=O)=O)cc1Cl`: the inhibition constant Ki on Carbonic anhydrase 1 was 560 nM; on Carbonic anhydrase 4, 63 nM.

The molecule `NS(=O)(=O)c1ccc(CCO)cc1` showed a Ki on Carbonic anhydrase 4 of 5 nM.

In the case of `NCCCC(=O)Nc1ccc(S(N)(=O)=O)cc1`, the Ki is 15200 nM on Carbonic anhydrase 1 and 164 nM at Carbonic anhydrase 4.

As for `Cn1nc(S(N)(=O)=O)s/c1=N/S(=O)(=O)c1ccc(NC(=O)CCCN)cc1`, the affinity on Carbonic anhydrase 1 corresponds to a Ki of 15 nM.

For the molecule `Cn1nc(S(N)(=O)=O)s/c1=N\C(=O)CCCN`, the Ki was 310 nM on Carbonic anhydrase 1 and 42 nM at Carbonic anhydrase 4.

As for `NCCCC(=O)NCc1ccc(S(N)(=O)=O)cc1`, at Carbonic anhydrase 4, the affinity corresponds to a Ki of 69 nM. This counts as double-digit nanomolar.

In the case of `NCCCC(=O)Nc1ccc(S(=O)(=O)Nc2cccc(S(N)(=O)=O)c2)cc1`, the Ki was 61 nM at Carbonic anhydrase 1 and 67 nM on Carbonic anhydrase 4.

In the case of `NCCCC(=O)Nc1ccc(S(N)(=O)=O)cc1Br`, the values for the inhibition constant (Ki) on Carbonic anhydrase 1 and at Carbonic anhydrase 4 were 520 nM and 60 nM, respectively.

For the molecule `NCCCC(=O)Nc1nccc(Nc2ccc(S(N)(=O)=O)cc2)n1`, the figures for the Ki on Carbonic anhydrase 1 and on Carbonic anhydrase 4 were 51 nM and 50 nM, respectively.

Regarding `NCCCC(=O)NCCC(=O)Nc1nnc(S(N)(=O)=O)s1`, the Ki at Carbonic anhydrase 1 is 24 nM; on Carbonic anhydrase 4, 15 nM.

Regarding `NCCCC(=O)OCc1ccc(S(N)(=O)=O)cc1`, the Ki on Carbonic anhydrase 1 is 1750 nM; on Carbonic anhydrase 4, 180 nM.

These data come from ChEMBL document CHEMBL1146110, “QSAR study on topically acting sulfonamides incorporating GABA moieties: a molecular connectivity approach” (Bioorg Med Chem Lett, 2006).
